Experimental data published in US20230274811A1, “METHODS OF MAKING PROSTATE CANCER TREATMENT DECISIONS” (Progenics Pharmaceuticals, Inc., priority 2020, published 2023).
Where “and” joins values, the source holds several entries; their conditions need not be identical. Identical values can stand only once. Entries after “also recorded” stand apart in the source; their conditions may differ. Like-named read-outs stand apart in the source and are kept apart here.

Tests used:
[1] = system: pelvic lymph node metastases; experiment: OSPREY Cohort A: 18F-DCFPyL PET/CT detection of pelvic lymph node metastases vs histopathology; format: in vivo, men; settings: for NPV % (95% CI) / PPV % (95% CI) / Sensitivity % (95% CI) / Specificity % (95% CI): N=252
Description: Histopathology served as the reference standard to which imaging findings were compared. FIG. 1 provides information regarding the study design and cohorts.
Imaging findings were compared to histopathology as the truth standard.
In OSPREY, 268 patients at high risk for pelvic lymph node metastasis who were planned for initial definitive therapy underwent PyLARIFY imaging. […] PyLARIFY and baseline conventional imaging reader interpretations were compared to pathologic staging of pelvic nodal metastases.

[2] = system: PCa recurrence or metastases; experiment: OSPREY Cohort B sub-analysis: staging changes vs conventional imaging; format: in vivo, men
Experimental: Methods ^18F-DCFPyL-PET/CT was evaluated in 117 men with radiologic evidence of local recurrence or metastatic disease on baseline anatomical imaging (CT, MRI) or whole-body bone scintigraphy and in whom at least one lesion was deemed amenable to biopsy. […] Based on TNM staging: prostatic (T), pelvic LN (N), extra-pelvic LN (M1a), bone (M1b) and other visceral organs/soft tissue (M1c), ^18F-DCFPyL-PET/CT detection rates including lesion counts were systematically analyzed. Three central, blinded, and independent readers evaluated the ^18F-DCFPyL scans.

[3] = CONDOR safety (adverse events); format: in vivo, men
Description: Pre- and post-treatment assessments also included vital signs and concomitant medications/procedures.

[4] = system: PSMA-positive PC3 PIP tumor; experiment: Uptake in mouse xenografts; format: in vivo; settings: PSMA-positive PC3 PIP vs PSMA-negative PC3 flu tumors
high-risk PCa = experiment: OSPREY Cohort A sub-analysis: TNM staging by 18F-DCFPyL PET/CT at initial staging; format: in vivo; settings: 252 men
Description: Three central, blinded, and independent readers evaluated the ^18F-DCFPyL scans.

[5] = OSPREY safety (adverse events); format: in vivo, men
Experimental: The coprimary endpoints of sensitivity and specificity of ^18F-DCFPyL PET/CT for detecting pelvic lymph node metastases were evaluated in Cohort A. Secondary endpoints included safety in both cohorts, positive predictive value (PPV) and negative predictive value (NPV) in Cohort A, and sensitivity and PPV in Cohort B. Three central, blinded, and independent readers evaluated the ^18F-DCFPyL scans. Histopathology served as the reference standard to which imaging findings were compared. FIG. 1 provides information regarding the study design and cohorts.
Co-primary endpoints of specificity and sensitivity of ^18F-DCFPyL PET/CT for detecting prostate cancer metastases in pelvic lymph nodes were evaluated in Cohort A. Key secondary endpoints included incidence of adverse events, positive predictive value (PPV) and negative predictive value (NPV) of ^18F-DCFPyL PET/CT imaging to detect pelvic lymph node metastases in Cohort A, sensitivity and PPV of ^18F-DCFPyL PET/CT imaging to detect prostate cancer within sites of metastasis or recurrence in Cohort B. Three central, blinded, and independent readers evaluated the ^18F-DCFPyL scans. Imaging findings were compared to histopathology as the truth standard.
Pts underwent image-guided biopsy.

[6] = system: primary tumor in the gland; experiment: OSPREY Cohort A: 18F-DCFPyL PET/CT detection of primary tumor in the prostate gland vs surgical pathology; format: in vivo, men
Description: Sensitivity, specificity, PPV and NPV of ^18F-DCFPyL PET/CT for detecting primary tumor in the gland and pelvic lymph node metastases were compared to conventional imaging (CI), either CT or MRI. Three central, blinded, and independent readers evaluated the ^18F-DCFPyL scans and one blinded central reader interpreted the CI. Imaging results were compared to surgical pathology as the truth standard.

## O=C(O)CC[C@H](NC(=O)N[C@@H](CCCCNC(=O)c1ccc([18F])nc1)C(=O)O)C(=O)O [18F-DCFPyL, 2-(3-{1-carboxy-5-[(6-[^18F]fluoro-pyridine-3-carbonyl)-amino]-pentyl}ureido)-pentanedioic acid]
[1]; Cohort A, n=252 evaluable
  NPV, range among three readers: 81.4-83.8% and 81-84%
  PPV, range among three readers: 78.1-90.5% and 78-91%
  Sensitivity, range among three readers: 30.6-41.9% and 31-42%
  Specificity, range among three readers: 96.3-98.9% and 96-99%
[1]; Cohort A, restricted to median lymph node metastases >4 mm
  Sensitivity, range among three readers: 51.7-65.5%
[1]; Reader 1
  NPV % (95% CI): 84 (80, 89) %
  PPV % (95% CI): 87 (70, 95) %
  Sensitivity % (95% CI): 42 (30, 54) %
  Specificity % (95% CI): 98 (95, 99) %
[1]; Reader 2
  NPV % (95% CI): 81 (76, 86) %
  PPV % (95% CI): 91 (70, 99) %
  Sensitivity % (95% CI): 31 (19, 42) %
  Specificity % (95% CI): 99 (96, 100) %
[1]; Reader 3
  NPV % (95% CI): 83 (78, 87) %
  PPV % (95% CI): 78 (64, 93) %
  Sensitivity % (95% CI): 40 (28, 53) %
  Specificity % (95% CI): 96 (94, 99) %
[2]; 10/11
  up-staged pts with extra-pelvic biopsy confirmed M1 by pathology: 91%
[2]; 10/64
  baseline M1 pts upstaged to a higher M1 sub-stage: 16%
[2]; 18/82
  baseline M1 pts down-staged to M0: 22%
[2]; 19/33 M0 at baseline by conventional imaging
  pts up-staged from M0 to M1: 58%
[3]; 14 patients, 21 AEs
  patients experiencing AEs: 6.7%
[3]; 208 men
  drug-related serious adverse event: A single serious adverse event (AE) was reported as related to study drug (hypersensitivity); also recorded: hypersensitivity was the single drug-related Grade 3 AE
  fatigue, AE incidence: 1.0%
  headache, AE incidence: 1.9%
  hypertension, AE incidence: 1.0%
[3]; 208 men, listed as PyL
  drug-related serious adverse event: one drug-related SAE (hypersensitivity)
[3]; CONDOR
  tolerability: well tolerated
[3]; in vivo
  Grade 4 AEs, deaths, AEs leading to discontinuation: There were no Grade 4 AEs, nor were there deaths or AEs that led to discontinuation of the study
  changes in vital signs pre- to post-dosing: No clinically relevant changes in vital signs were observed
[3]; one patient
  patients with Grade 3, serious AEs (hypersensitivity, headache, paresthesia): 0.5%
[3]; single patients
  AEs in case studies 1-3: No AEs were reported
[4]
  uptake in mouse xenografts: taken up only in PSMA-positive PC3 PIP tumor and not in PSMA-negative PC3 flu tumors
high-risk PCa
  patients upstaged to N1 or M1 disease: 22%
  pts staged M1a: 0.4%
  pts staged M1b: 9.1%
  pts staged M1c: 1.2%
  pts staged with M1 disease: 10.7%
high-risk PCa; no known nodal/metastatic disease on standard imaging
  pts staged with N1 disease: 14.7%
[5]; 385 men, both cohorts
  drug-related serious adverse events: No drug-related serious adverse events were observed
  dysgeusia, drug-related AE incidence: 2.1%
  headache, drug-related AE incidence: 2.1%
  men with ≥1 drug-related adverse event: 7.0%
[5]; Cohort B
  severity of drug-related AEs (dysgeusia and generalized rash): mild (Grade 1)
[5]; Cohort B, 117 men
  pts with ≥1 drug-related AE: 1.7%
[5]; OSPREY
  tolerability: generally well tolerated
[6]
  PPV, median of 3 readers: 100% (0.98, 1.0)
  Sensitivity, median of 3 readers: 98.0% (0.96, 1.0)
[6]; listed as PyL
  Sensitivity, median of 3 readers: 98%
